Experimental data from patent US12403132B2, “Methods of treating bone marrow failure syndromes and compositions for use in the same” (The Board of Trustees of the Leland Stanford Junior …, priority 2020, dated 2025).

Key:
CD235+ erythroblasts = test: CD235+ erythroblast differentiation of CD34+ HSPCs from DBA patient bone marrow; format: cell-based, human; conditions: DBA patient samples, 5 μM SD208
Protocol: FIG. 8. NLK inhibition increases expansion of erythroid progenitors from human and murine models of DBA. Human cord blood CD34+ progenitors were transduced with lentivirus co-expressing GFP with shRNA against luciferase (shLuc), RPS19 (shRPS19) or RPL11 (shRPL11). After 36 hours cells GFP+ cells were differentiated in erythroid media in the presence or absence of 5 μM SD208 for 15 days. Cells were counted and assessed for cell surface expression of CD235. (a) The percentage of CD235+ cells was multiplied by the cell count and values were compared as a percentage of untreated controls. (b) Normalizing values relative to untreated RPS19-insufficiency progenitors facilitates direct comparison of erythropoiesis between untreated and SD208-treated cultures. (c) Approximately 3000 cells were removed from differentiating treatments at day 6 and NLK activity was assessed. […] Values were expressed as a percentage relative to untreated controls (e) and directly comparing the effect of SD208 on erythropoiesis in ribosomal-insufficiency by expressing values relative to untreated ribosome-insufficient cultures (f). […] After counting the total cell population, the ratio of CD235+ erythroblasts was determined by flow cytometry and number of CD235+ erythroblasts calculated. This was expressed as a percentage of the average number of erythroid cells present in untreated healthy controls. […]

miRNA species = test: miRNA expression by qRT-PCR in differentiating murine Lin-Kit+ progenitors; format: cell-based, mouse; conditions: metformin
Protocol: FIG. 14. Metformin-mediated upregulation of miR-26a in human progenitors suppresses NLK expression. (Panel A) Human CD34+ (upper) and murine Lin-Kit+ (lower) progenitors were differentiated for 8 days in the presence or absence of metformin and the levels of indicated miRNAs were assessed by qRT-PCR. (Panel B) K562 cells stably expressing the luciferase gene coupled to the NLK 3′UTR were mock transfected, transfected with indicated miRNA mimetics, or treated with metformin, and cultured in the presence or absence of metformin for 72 hrs. After lysis, luciferase activity was determined and endogenous NLK and GAPDH protein expression was analyzed by Western blot. (Panel C) K562 cells were mock transfected, or transfected with either miR-34 or miR-26 sponges, prior to being left untreated or treated with metformin for 72 hrs. Lysed cells were subjected to luciferase assay and western blotting to examine NLK and GAPDH protein expression. […] Statistics: two-tailed Student's t test, significant *P<0.05
MessengerRNA was quantified as described (5). MicroRNA was quantified using TaqMan® Small RNA Assays (Applied Biosystems) as per manufacturer's directions and normalized to snoRNA.

zebrafish NLK 3′UTR = test: Luciferase fused to zebrafish NLK 3′UTR in K562 cells; format: cell-based; conditions: transient transfection in K562, metformin 72 hrs
NLK = NLK expression and NLK activity in murine progenitors; format: cell-based, mouse; conditions: control, RPS19- or RPL11-insufficient mice, metformin
Excerpt: FIG. 11. […] Statistics: two-tailed Student's t test, significant *P<0.05

Compound | mean increase in erythroid expansion (CD235+ erythroblasts) | upregulation of miRNA species (miRNA species) | decrease of luciferase activity, zebrafish 3′UTR (zebrafish NLK 3′UTR) | impact on NLK activity (NLK) | impact on NLK expression (NLK)
Fc1ccc(Cl)cc1-c1nc(Nc2ccncc2)c2nccnc2n1 [SD208] | 2.11 fold |  |  |  | 
CN(C)C(=N)N=C(N)N [metformin] |  | none of the miRNA species examined demonstrated significant upregulation | 43.6% | no impact | no impact
